Data from US20090246292A1, “ANTIMICROBIAL FORMULATIONS COMPRISING A QUINONE AND A COPPER SALT” (priority 2006, published 2009).

Assays:
P. acnes PRP-002 = experiment: Disc diffusion assay (DDA), also supplemented; type: cell-based, Propionibacterium acnes; conditions: 200 μg per disc
Procedure: (§1) The propionibacteria were cultured and maintained on Wilkins-Chalgren Anaerobe Medium (agar and broth) at pH 6.0; all cultures were incubated anaerobically at 37° C. for 72 hours.
(§2) A sterile paper disc was impregnated with a sample of the test compound in a suitable solvent and 30 minutes allowed for the solvents to evaporate (where possible). The disc was then placed on an agar plate onto which the test micro-organism had been inoculated. The plate was then incubated under the conditions described above, following which it was examined visually for signs of bacterial growth. […] The diameter of this zone of “inhibition” was measured using a ProtoCOL™ automated zone sizer (Synbiosis, Cambridge, UK).
(§3) For assays using Propionibacterium spp. strains the supplements used in the examples below were lipid (either Tween™ 80 or triolein, both at 1% v/v) and sodium chloride (100 mM).

[1] = test system: panel of different propionibacterium strains; experiment: MIC by agar dilution and (S)DDA, whole panel; type: cell-based, Propionibacterium spp; conditions: compound alone; also under supplemented conditions
Procedure: For (S)DDA experiments 200 μg of each test compound was added per disc. […] MIC experiments were performed in duplicate, DDA experiments as single replicates only. SDDA experiments were conducted in triplicate.
The activity of the salt (MIC by agar dilution and DDA) was also determined against a panel of different propionibacterium strains. Supplemented DDA experiments were also carried out. […] DMSO was used as the diluting solvent. MIC experiments were performed in duplicate and DDA experiments as single replicates only.

P. acnes PRP-017 = experiment: Disc diffusion assay (DDA), also supplemented; type: cell-based, Propionibacterium acnes; conditions: 200 μg per disc
P. acnes PRP-102 = experiment: Disc diffusion assay (DDA), also supplemented; type: cell-based, Propionibacterium acnes; conditions: 200 μg per disc
Procedure: as §1, §2, §3

P. granulosum PRP-019 = experiment: Disc diffusion assay (DDA), also supplemented; type: cell-based; conditions: 200 μg per disc
Procedure: as §1, §2, §3

O.O.O.O.O.O=S(=O)([O-])[O-].[Cu+2] [Copper (II) sulphate pentahydrate]
DDA + salt (P. acnes PRP-002): 50.77 mm | DDA + lipid (P. acnes PRP-002; 1% (v/v) triolein): 47.13 mm | DDA (P. acnes PRP-002; single replicate): 49.25 mm | DDA (P. acnes PRP-002; Table 12 series): 57.92 mm | activity against propionibacterium strains tested (in words) [1]: excellent level of activity | DDA + salt (P. acnes PRP-017): 56.85 mm | DDA + lipid (P. acnes PRP-017; 1% (v/v) triolein): 55.03 mm | DDA (P. acnes PRP-017; single replicate): 51.38 mm | DDA (P. acnes PRP-017; Table 12 series): 46.31 mm | DDA + salt (P. acnes PRP-102): 49.25 mm | DDA + lipid (P. acnes PRP-102; 1% (v/v) triolein): 50.77 mm | DDA (P. acnes PRP-102; single replicate): 46.52 mm | DDA (P. acnes PRP-102; Table 12 series): 51.65 mm | DDA + salt (P. granulosum PRP-019): 25.84 mm | DDA + lipid (P. granulosum PRP-019; 1% (v/v) triolein): 24.02 mm | DDA (P. granulosum PRP-019; single replicate): 22.80 mm | DDA (P. granulosum PRP-019; Table 12 series): 24.15 mm
